In experiment [1] the target is T1, rP2Y12R (Rattus norvegicus, UniProt Q9EPX4). The experiment can be described thus: radioligand displacement of [3H]AZ12464237. It is filed as binding. (In a radioligand displacement assay an active substance lowers the binding of a labelled ligand.)
The target of the next experiment is hP2Y12R (Homo sapiens, UniProt Q9H244). The experiment can be described thus: radioligand displacement of [3H]AZ12464237. It is filed as binding.
Experiment [2] concerns the target T1, rP2Y12R. The experiment can be described thus: radioligand saturation binding, HEK […] membranes.

This is an account of results in article doi:10.1101/2024.10.10.617599v1 (biorxiv, 2024).

Counter-ions that a name gives are not always drawn.

T1 sequence (Q9EPX4 whole entry): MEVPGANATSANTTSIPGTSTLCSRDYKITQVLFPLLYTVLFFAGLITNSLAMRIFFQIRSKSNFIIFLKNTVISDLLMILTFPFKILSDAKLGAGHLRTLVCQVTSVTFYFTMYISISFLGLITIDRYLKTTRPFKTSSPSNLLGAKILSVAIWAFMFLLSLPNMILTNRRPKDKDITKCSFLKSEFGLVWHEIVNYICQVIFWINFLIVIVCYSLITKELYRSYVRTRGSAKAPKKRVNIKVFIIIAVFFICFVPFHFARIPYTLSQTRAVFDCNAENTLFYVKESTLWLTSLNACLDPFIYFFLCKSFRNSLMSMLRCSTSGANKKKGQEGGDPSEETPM
Sequence of hP2Y12R (Q9H244 whole entry): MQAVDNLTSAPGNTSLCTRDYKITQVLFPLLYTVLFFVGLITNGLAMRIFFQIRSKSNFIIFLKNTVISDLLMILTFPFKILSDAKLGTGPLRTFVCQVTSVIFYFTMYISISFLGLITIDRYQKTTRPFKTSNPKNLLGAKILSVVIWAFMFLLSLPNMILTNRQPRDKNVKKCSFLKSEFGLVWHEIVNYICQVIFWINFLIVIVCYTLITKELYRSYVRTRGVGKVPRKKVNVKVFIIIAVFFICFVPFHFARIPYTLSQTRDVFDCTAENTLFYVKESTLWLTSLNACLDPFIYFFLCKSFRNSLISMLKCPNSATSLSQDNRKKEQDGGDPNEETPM

On to `CCCSc1nc(N[C@@H]2C[C@H]2c2ccc(F)c(F)c2)c2nnn([C@@H]3C[C@H](OCCO)[C@@H](O)[C@H]3O)c2n1` [ticagrelor], for which the Ki at rP2Y12R [1] stood at 48.8 ± 15.2 nM; at hP2Y12R, 20.1 ± 0.25 nM. Take `Cc1nc(N=Nc2cc([N+](=O)[O-])ccc2Cl)c(COP(=O)(O)O)c(C=O)c1O` [MRS2211, 2-[(2-chloro-5-nitrophenyl)azo]-5-hydroxy-6-methyl-3-[(phosphonooxy)methyl]-4-pyridinecarboxaldehyde disodium salt]: affinity at hP2Y12R was put at a Ki of 3240 ± 1850 nM. Same read-out and setting: for `CCOC(=O)c1cc(C#N)c(N2CCC(C(=O)NS(=O)(=O)Cc3ccccc3)CC2)nc1C` [AZD1283, Ethyl 5-cyano-2-methyl-6-[4-[[[(phenylmethyl)sulfonyl]amino]carbonyl]-1-piperidinyl]-3-pyridinecarboxylate] the value was 2.66 ± 0.6 nM; for `CSc1nc(N)c2ncn([C@@H]3O[C@H](COP(=O)(O)OP(=O)(O)O)[C@@H](O)[C@H]3O)c2n1` [2MeSADP, 2-methylthio-adenosine-5’-diphosphate], 18.9 ± 2.61 nM; for `S=C=Nc1cccc(NC(=S)NCCCCNC(=S)Nc2cccc(N=C=S)c2)c1` [MRS2578], more than 100000 nM. As for `CNc1cc2[nH]c(=O)n(-c3ccc(NC(=O)NS(=O)(=O)c4ccc(Cl)s4)cc3)c(=O)c2cc1F` [elinogrel, 5-chloro-N-[[[4-[6-Fluoro-1,4-dihydro-7-(methylamino)-2,4-dioxo-3(2H)-quinazolinyl]phenyl]amino]carbonyl]-2-thiophenesulfonamide], the Ki at rP2Y12R [1] was found to be 55 ± 14.3 nM; on hP2Y12R, 7 ± 0.54 nM. Take `Nc1c(S(=O)(=O)O)cc(Nc2ccc(Nc3ccccc3)c(S(=O)(=O)O)c2)c2c1C(=O)c1ccccc1C2=O` [PSB0739]: affinity at hP2Y12R was put at a Ki of 25.6 ± 3.05 nM. As for `O=C(O)c1cc(-c2ccc(C3CCNCC3)cc2)c2ccc(-c3ccc(C(F)(F)F)cc3)cc2c1` [PPTN·HCl, 4-[4-(4-piperidinyl)phenyl]-7-[4-(trifluoromethyl)phenyl]-2-naphthalenecarboxylic acid hydrochloride], on hP2Y12R, the Ki is more than 10000 nM. Compound `CCOC(=O)c1cc(C#N)c(N2CC(NC(=O)NS(=O)(=O)c3ccc(Cl)s3)C2)nc1C` [AZ12464237, Ethyl 6-(3-(3-((5-chlorothiophen-2-yl)sulfonyl)ureido)azetidin-1-yl)-5-cyano-2-methylnicotinate] displayed a Kd at rP2Y12R [2] of 16.6 ± 3.37 nM.

A word on the Ki: it is the equilibrium dissociation constant of an inhibitor or competing ligand from its target. The low end stands for a stronger hold on the target, the high end for a looser hold on the target. As a reminder, the Kd is the concentration at which binding is half-saturated. Higher therefore signals weaker binding.
